The values that follow are results of earlier work, collected in patent US20230310317A1, “SOL-GEL COMPOSITION” (THE UNIVERSITY OF QUEENSLAND, priority 2020, published 2023).

For the data set the following is noted: aqueous media e.g. gel-based systems.

On to `C[C@@H]1C[C@H]2[C@@H]3CCC4=CC(=O)C=C[C@]4(C)[C@@]3(Cl)[C@@H](O)C[C@]2(C)[C@@]1(OC(=O)c1ccco1)C(=O)CCl` [MF, mometasone furoate], for which the “Solubility in aqueous media” value is reported as “practically insoluble”.
